Reference: patent US20050159427A1, “N-acylsulfonamide apoptosis promoters” (priority 2003, published 2005)

Tests used:
Calu-6 = assay: Tumor cell viability (TABLE 1); format: cell-based; conditions: Homo sapiens, read-out: EC50 (50% reduction in cell viability); Calu-6 (Non-Small Cell Lung); serum-free conditions, 48 hour treatment; mean ± SEM
NCI-H226 = assay: Tumor cell viability (TABLE 1); format: cell-based; conditions: Homo sapiens, read-out: EC50 (50% reduction in cell viability); NCI-H226 (Non-Small Cell Lung); serum-free conditions, 48 hour treatment; mean ± SEM
NCI-H322M = assay: Tumor cell viability (TABLE 1); format: cell-based; conditions: Homo sapiens, read-out: EC50 (50% reduction in cell viability); NCI-H322M (Non-Small Cell Lung); serum-free conditions, 48 hour treatment; mean ± SEM
A549/ATCC = assay: Tumor cell viability (TABLE 1); format: cell-based; conditions: Homo sapiens, read-out: EC50 (50% reduction in cell viability); A549/ATCC (Non-Small Cell Lung); serum-free conditions, 48 hour treatment; mean ± SEM
COLO 205 = assay: Tumor cell viability (TABLE 1); format: cell-based; conditions: Homo sapiens, read-out: EC50 (50% reduction in cell viability); COLO 205 (Colorectal); serum-free conditions, 48 hour treatment; mean ± SEM
SW-620 = assay: Tumor cell viability (TABLE 1); format: cell-based; conditions: Homo sapiens, read-out: EC50 (50% reduction in cell viability); SW-620 (Colorectal); serum-free conditions, 48 hour treatment; mean ± SEM
HT-29 = assay: Tumor cell viability (TABLE 1); format: cell-based; conditions: Homo sapiens, read-out: EC50 (50% reduction in cell viability); HT-29 (Colorectal); serum-free conditions, 48 hour treatment; mean ± SEM
MDA-MB-435 = assay: Tumor cell viability (TABLE 1); format: cell-based; conditions: Homo sapiens, MDA-MB-435, 48 h, read-out: EC50 (50% reduction in cell viability)
U251 = assay: Tumor cell viability (TABLE 1); format: cell-based; conditions: Homo sapiens, U-251, read-out: EC50 (50% reduction in cell viability); U251 (CNS); serum-free conditions, 48 hour treatment; mean ± SEM
SF-295 = assay: Tumor cell viability (TABLE 1); format: cell-based; conditions: Homo sapiens, read-out: EC50 (50% reduction in cell viability); SF-295 (CNS); serum-free conditions, 48 hour treatment; mean ± SEM
SF-268 = assay: Tumor cell viability (TABLE 1); format: cell-based; conditions: Homo sapiens, read-out: EC50 (50% reduction in cell viability); SF-268 (CNS); serum-free conditions, 48 hour treatment; mean ± SEM
U87MG = assay: Tumor cell viability (TABLE 1); format: cell-based; conditions: Homo sapiens, U-87 MG, read-out: EC50 (50% reduction in cell viability); U87MG (Glioma); serum-free conditions, 48 hour treatment; mean ± SEM
SK-MEL-28 = assay: Tumor cell viability (TABLE 1); format: cell-based; conditions: Homo sapiens, read-out: EC50 (50% reduction in cell viability); SK-MEL-28 (Melanoma); serum-free conditions, 48 hour treatment; mean ± SEM
OVCAR-5 = assay: Tumor cell viability (TABLE 1); format: cell-based; conditions: Homo sapiens, read-out: EC50 (50% reduction in cell viability); OVCAR-5 (Ovarian); serum-free conditions, 48 hour treatment; mean ± SEM
OVCAR-8 = assay: Tumor cell viability (TABLE 1); format: cell-based; conditions: Homo sapiens, read-out: EC50 (50% reduction in cell viability); OVCAR-8 (Ovarian); serum-free conditions, 48 hour treatment; mean ± SEM
MiaPaCa = assay: Tumor cell viability (TABLE 1); format: cell-based; conditions: Homo sapiens, MIA PaCa-2, read-out: EC50 (50% reduction in cell viability); MiaPaCa (Pancreas); serum-free conditions, 48 hour treatment; mean ± SEM
PC3 = assay: Tumor cell viability (TABLE 1); format: cell-based; conditions: Homo sapiens, PC-3, read-out: EC50 (50% reduction in cell viability); PC3 (Prostate); serum-free conditions, 48 hour treatment; mean ± SEM
DU-145 = assay: Tumor cell viability (TABLE 1); format: cell-based; conditions: Homo sapiens, read-out: EC50 (50% reduction in cell viability); DU-145 (Prostate); serum-free conditions, 48 hour treatment; mean ± SEM
ACHN = assay: Tumor cell viability (TABLE 1); format: cell-based; conditions: Homo sapiens, read-out: EC50 (50% reduction in cell viability); ACHN (Renal); serum-free conditions, 48 hour treatment
786-0 = assay: Tumor cell viability (TABLE 1); format: cell-based; conditions: Homo sapiens, read-out: EC50 (50% reduction in cell viability); 786-0 (Renal); serum-free conditions, 48 hour treatment; mean ± SEM
RXF-393 = assay: Tumor cell viability (TABLE 1); format: cell-based; conditions: Homo sapiens, read-out: EC50 (50% reduction in cell viability); RXF-393 (Renal); serum-free conditions, 48 hour treatment; mean ± SEM
SCLC xenograft = assay: Small cell lung cancer xenograft tumor model; format: in vivo, murine
Excerpt: (H146 and SCLC xenograft) from human-derived small cell lung cancer isolated from smokers and nonsmokers, defective for Rb/p53 gene function, and expresseive of moderately high levels of Bcl-2.

[1] = test system: DoHH2 follicular lymphoma flank tumors; assay: DoHH2 follicular lymphoma model; format: in vivo
RS11380 = RS11380 model of B-cell follicular lymphoma; format: in vivo
[2] = test system: A549 human non-small cell lung carcinoma cells; assay: Paclitaxel combination on A549 cells; format: cell-based; conditions: A549 cells
[3] = test system: PC-3 prostate carcinoma cells; assay: Paclitaxel combination on PC-3 cells; format: cell-based
[4] = established flank tumors, sustained period of time

**Q.** Which EC50 (Calu-6) does the source give for CN(C)CC[C@H](CSc1ccccc1)Nc1ccc(S(=O)(=O)NC(=O)c2ccc(N3CCN(Cc4ccccc4-c4ccc(Cl)cc4)CC3)cc2)cc1[N+](=O)[O-] [EXAMPLE 2, N-(4-(4-((4′-chloro(1,1′-biphenyl)-2-yl)methyl)piperazin-1-yl)benzoyl)-4-(((1R)-3-(dimethylamino)-1-((phenylsulfanyl)methyl)propyl)amino)-3-nitrobenzenesulfonamide] here?
**A.** 180 ± 70 nM

**Q.** What about the EC50 (NCI-H226) of the same compound?
**A.** 2600 ± 1100 nM

**Q.** What about the EC50 (NCI-H322M) of the same compound?
**A.** 4100 ± 800 nM

**Q.** And the EC50 (A549/ATCC)?
**A.** 5200 ± 200 nM

**Q.** And the EC50 (COLO 205)?
**A.** 510 ± 70 nM

**Q.** What about the EC50 (SW-620) of the same compound?
**A.** 690 ± 70 nM

**Q.** What about the EC50 (HT-29) of the same compound?
**A.** 1100 ± 1100 nM

**Q.** What about the EC50 (MDA-MB-435) of the same compound?
**A.** 2400 nM

**Q.** What about the EC50 (U251) of the same compound?
**A.** 3800 ± 2000 nM

**Q.** And the EC50 (SF-295)?
**A.** 7700 ± 2300 nM

**Q.** What about the EC50 (SF-268) of the same compound?
**A.** 8300 ± 400 nM

**Q.** And the EC50 (U87MG)?
**A.** 2700 ± 1800 nM

**Q.** What about the EC50 (SK-MEL-28) of the same compound?
**A.** 9300 ± 100 nM

**Q.** What about the EC50 (OVCAR-5) of the same compound?
**A.** 1100 nM

**Q.** And the EC50 (OVCAR-8)?
**A.** 3400 ± 800 nM

**Q.** What about the EC50 (MiaPaCa) of the same compound?
**A.** 1400 ± 600 nM

**Q.** And the EC50 (PC3)?
**A.** 960 ± 380 nM

**Q.** What about the EC50 (DU-145) of the same compound?
**A.** 8200 ± 1100 nM

**Q.** What about the EC50 (ACHN) of the same compound?
**A.** 1000 nM

**Q.** And the EC50 (786-0)?
**A.** 2900 ± 100 nM

**Q.** And the EC50 (RXF-393)?
**A.** 2900 ± 400 nM

**Q.** What about the anti-tumor activity (SCLC xenograft; SCLC xenograft murine model) of the same compound?
**A.** demonstrated anti-tumor activity

**Q.** And the “anti-tumor activity compared with paclitaxel” value (SCLC xenograft; paclitaxel near the maximum tolerated dose)?
**A.** equivalent to slightly better than paclitaxel

**Q.** And the “anti-tumor activity compared with cisplatin and etoposide” value (SCLC xenograft; small cell lung cancer xenograft tumor model)?
**A.** superior to cisplatin and etoposide

**Q.** And the “tumor regression, combination with Rituxin®” value [1, 4]?
**A.** complete regression of a significant percentage of established DoHH2 follicular lymphoma flank tumors

**Q.** And the “tumor regression, combination with rapamycin” value [1, 4]?
**A.** complete regression of a significant percentage of established DoHH2 follicular lymphoma flank tumors

**Q.** What about the tumor growth ([1]; model of follicular lymphoma (DOHH-2)) of the same compound?
**A.** inhibited tumor growth

**Q.** And the “activity in follicular lymphoma model” value (RS11380)?
**A.** significant activity

**Q.** And the “increase in efficacy of paclitaxel when administered with the compound” value [2]?
**A.** about 4.4 fold

**Q.** And the “increase in efficacy of paclitaxel when administered with the compound” value [3]?
**A.** 4.7 fold
